What was measured:
EGFR (human) [1] = target: EGFR (human) (UniProt P00533); conditions: a431
EGFR (human) [2] = target: EGFR (human) (UniProt P00533); conditions: snu638
EGFR (human) [3] = target: EGFR (human) (UniProt P00533); conditions: a549
EGFR (human) [4] = target: EGFR (human) (UniProt P00533)

EGFR (human), sequence (P00533 whole entry, looked up): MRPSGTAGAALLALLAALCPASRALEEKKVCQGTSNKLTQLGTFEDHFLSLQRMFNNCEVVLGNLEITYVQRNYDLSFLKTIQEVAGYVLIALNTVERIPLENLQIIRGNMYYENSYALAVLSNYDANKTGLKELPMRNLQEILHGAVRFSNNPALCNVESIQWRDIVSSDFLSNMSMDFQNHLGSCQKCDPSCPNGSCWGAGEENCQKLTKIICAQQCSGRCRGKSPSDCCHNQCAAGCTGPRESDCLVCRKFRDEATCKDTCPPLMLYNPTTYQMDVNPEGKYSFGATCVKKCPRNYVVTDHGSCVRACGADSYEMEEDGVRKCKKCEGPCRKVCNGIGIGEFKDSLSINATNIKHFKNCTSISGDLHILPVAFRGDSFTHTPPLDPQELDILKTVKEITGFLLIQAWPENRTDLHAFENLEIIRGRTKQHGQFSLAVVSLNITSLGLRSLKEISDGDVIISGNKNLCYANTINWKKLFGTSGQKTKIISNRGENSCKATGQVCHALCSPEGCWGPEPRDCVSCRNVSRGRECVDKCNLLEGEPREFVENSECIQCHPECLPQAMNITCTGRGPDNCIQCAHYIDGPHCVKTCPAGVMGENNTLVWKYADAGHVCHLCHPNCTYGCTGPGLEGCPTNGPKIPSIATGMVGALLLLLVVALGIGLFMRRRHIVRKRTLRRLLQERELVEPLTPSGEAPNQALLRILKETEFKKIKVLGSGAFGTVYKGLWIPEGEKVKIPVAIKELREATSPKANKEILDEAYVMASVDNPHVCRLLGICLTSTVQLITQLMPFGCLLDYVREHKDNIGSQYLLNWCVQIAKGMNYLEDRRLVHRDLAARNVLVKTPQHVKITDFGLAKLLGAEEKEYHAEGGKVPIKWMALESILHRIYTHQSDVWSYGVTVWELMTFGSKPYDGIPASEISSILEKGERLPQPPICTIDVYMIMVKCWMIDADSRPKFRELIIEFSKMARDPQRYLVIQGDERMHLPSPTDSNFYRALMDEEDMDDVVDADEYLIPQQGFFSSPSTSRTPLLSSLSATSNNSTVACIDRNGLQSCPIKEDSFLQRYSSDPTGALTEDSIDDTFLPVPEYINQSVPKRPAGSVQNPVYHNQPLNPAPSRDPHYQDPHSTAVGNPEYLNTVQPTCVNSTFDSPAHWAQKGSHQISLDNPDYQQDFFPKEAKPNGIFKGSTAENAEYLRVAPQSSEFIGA

IC50 (EGFR (human) [4])	Structure (SMILES)	GI50 (EGFR (human) [1])	GI50 (EGFR (human) [2])	GI50 (EGFR (human) [3])
	Fc1cc(Nc2ncnc3cc4c(cc23)OCCO4)ccc1Cl	490 nM	> 100000 nM	75900 nM
	c1ccc(Nc2ncnc3cc4c(cc23)OCCO4)cc1	3800 nM	55000 nM	45700 nM
	Cc1cc(C)cc(Nc2ncnc3cc4c(cc23)OCCO4)c1	120 nM	170 nM	230 nM
	FC(F)(F)c1cccc(Nc2ncnc3cc4c(cc23)OCCO4)c1	140 nM	2750 nM	2240 nM
63 nM	Ic1cccc(Nc2ncnc3cc4c(cc23)OCCO4)c1	1550 nM	6170 nM	5620 nM
8.3 nM	Clc1cccc(Nc2ncnc3cc4c(cc23)OCCO4)c1	190 nM	4680 nM	4270 nM
77.6 nM	Fc1ccc(Nc2ncnc3cc4c(cc23)OCCO4)cc1	1290 nM	49000 nM	40700 nM
17.8 nM	Brc1cccc(Nc2ncnc3cc4c(cc23)OCCO4)c1	200 nM	5750 nM	4370 nM

Reference: the Kinase Knowledgebase extract (Sharma et al. 2016)
